Test results published in patent publication US20070078263A1, “BIARYL SUBSTITUTED HETEROCYCLE INHIBITORS OF LTA4H FOR TREATING INFLAMMATION” (deCODE Chemistry, Inc., priority 2005, published 2007).
Structures can show the parent of a compound that is named as a salt. Where two headings read alike, the source gives them in different places.

Legend:
human whole blood = test: Ex vivo assay testing inhibitory activity in human whole blood after stimulation with calcium ionophore (LTB4 ELISA); type: cell-based; conditions: Ionomycin 20 μM, read-out: hWBIC50;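 note: heparinized human blood preincubated 15 min at 37 °C with compound, then ionomycin-stimulated for 30 min, LTB4 in plasma supernatant quantified by ELISA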
Procedure: (2) Ex vivo assay testing inhibitory activity in human whole blood after stimulation with calcium ionophor.
Human blood was collected in heparin-containing Vacutainer tubes. […] Then 4 μl of a series of compound dilutions (in DMSO) were added, followed by a 15 min incubation at 37° C. with gentle shaking. After that, blood samples were stimulated by adding Ionomycin (Calbiochem) to a final concentration of 20 μM. After another incubation at 37° C. for 30 min, samples were centrifuged for 5 min at 1800 g and 4° C. Supernatants were taken and LTB4 concentrations were determined using a commercially available enzyme-linked immunosobentassay (R&D Systems, Minneapolis, Minn.) according to the manufacturer's instructions.

human LTA4 hydrolase = molecular target: T1, human LTA4 hydrolase (Homo sapiens, UniProt P09960); test: In vitro assay testing inhibitory activity against purified recombinant human LTA4 hydrolase (LTB4 formed, LC-MS/MS); type: biochemical;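 note: 200 nM enzyme preincubated 10 min at room temperature with serial inhibitor dilutions in pH 8.0 Tris buffer with BSA and 10% DMSO, then 2 µM LTA4 added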
T1 construct: A human LTA4 hydrolase full-length cDNA clone (NM 000895) was purchased; His tag (6xHis of vector pDEST17); made in house; host or cells: Escherichia coli BL21-AI
T1 sequence (P09960 1-611): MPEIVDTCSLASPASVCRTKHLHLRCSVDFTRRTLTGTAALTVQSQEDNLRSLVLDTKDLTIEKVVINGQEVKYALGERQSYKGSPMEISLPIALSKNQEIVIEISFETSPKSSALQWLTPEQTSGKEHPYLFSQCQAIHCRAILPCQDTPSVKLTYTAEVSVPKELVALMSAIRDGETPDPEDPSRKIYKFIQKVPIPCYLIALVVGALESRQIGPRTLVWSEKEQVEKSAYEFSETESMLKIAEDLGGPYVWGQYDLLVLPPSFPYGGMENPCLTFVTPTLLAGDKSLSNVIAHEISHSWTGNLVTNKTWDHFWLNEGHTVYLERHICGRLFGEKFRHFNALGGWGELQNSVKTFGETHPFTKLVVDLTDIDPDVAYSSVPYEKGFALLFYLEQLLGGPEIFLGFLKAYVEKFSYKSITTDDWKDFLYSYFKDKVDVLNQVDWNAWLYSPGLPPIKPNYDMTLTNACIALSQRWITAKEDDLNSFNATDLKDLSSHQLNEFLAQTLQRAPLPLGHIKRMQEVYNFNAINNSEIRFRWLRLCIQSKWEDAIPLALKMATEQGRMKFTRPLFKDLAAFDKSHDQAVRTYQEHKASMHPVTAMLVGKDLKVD
Source text: (1) In vitro assay testing inhibitory activity against purified recombinant human LTA4 hydroase. […] The gene was amplified by polymerase chain reaction and transferred via pDONR201 into the bacterial expression vector pDEST17 by recombination (both plasmids from Invitrogen, Carlsbad, Calif.). The resulting construct was transformed into Escherichia coli BL21-AI (Invitrogen), and expression was induced by chemical induction with arabinose. The recombinant enzyme was purified by chromatography on an FPLC system (Amersham Biosciences, Uppsala, Sweden) using immobilized metal affinity chromatography (Ni-NTA Superflow, Qiagen, Hilden, Germany) and anion exchange chromatography (MonoQ HR 10/10, Amersham Biosciences).
The compounds of the invention were incubated in a series of dilutions with 200 nM of recombinant enzyme in assay buffer (100 mM Tris-HCl, 100 mM NaCl, 5 mg/ml fatty-acid free BSA, 10% DMSO, pH 8.0) for 10 min at room temperature to allow binding between LTA4 hydrolase and the inhibitors. LTA4 was prepared by alkaline hydrolysis of LTA4 methyl ester (Biomol, Plymouth Meeting, Pa., or Cayman Chemicals, Ann Arbor, Mich.). A solution of 10 μg of the ester was dried under a nitrogen stream and redissolved in 60 μl of a solution of 80% acetone and 20% 0.25 M NaOH. After incubation for 40 min at room temperature the resulting approximately 500 μM tock of LTA4 was kept at −80° C. for no more than a few days prior to use.
Immediately before the assay, LTA4 was diluted to a concentration of 10 μM in assay buffer (without DMSO) and added to the reaction mixture to a final concentration of 2 μM to initiate the enzyme reaction. […] The samples were then kept at 4° C. overnight to complete protein precipitation and centrifuged for 15 min at 1800 g.

[1] = recombinant human LTA4 hydrolase 200 nM, LTA4 2 μM, read-out: AvgIC50

Molecule	IC50 (human whole blood)	IC50 (human LTA4 hydrolase; [1])	IC50 (human LTA4 hydrolase)
c1ccc(Cc2ccc(OCC3CCCCN3)cc2)cc1 (racemic) [Example 73, (+/−)-2-[(4-Benzylphenoxy)methyl]-piperidine hydrochloride]	< 5 µM	< 5 µM	–
c1ccc(Oc2ccc(OCC3CCCCN3)cc2)cc1 (racemic) [Example 74, (+/−)-2-[(4-phenoxyphenoxy)methyl]-piperidine hydrochloride]	< 5 µM	< 5 µM	–
O=C(O)CCCN1CCC[C@H]1COc1ccc(Cc2ccccc2)cc1 [Example 3, 4-[(S)-2-(4-benzyl-phenoxymethyl)-pyrrolidin-1-yl]-butyric acid]	< 5 µM	< 5 µM	–
c1ccc(Cc2ccc(OC[C@H]3CCCN3Cc3ccccn3)cc2)cc1 [Example 4, 2-[(R)-2-(4-benzyl-phenoxymethyl)-pyrrolidin-1-ylmethyl]-pyridine]	< 5 µM	< 5 µM	–
c1ccc(Cc2ccc(OC[C@H]3CCCN3Cc3cccnc3)cc2)cc1 [Example 5, 3-[(R)-2-(4-benzyl-phenoxymethyl)-pyrrolidin-1-ylmethyl]-pyridine]	< 5 µM	< 5 µM	–
COC(=O)CCCN1CCC[C@@H]1COc1ccc(Cc2ccccc2)cc1 [Example 8, 4-[(R)-2-(4-benzyl-phenoxymethyl)-pyrrolidin-1-yl]-butyric acid methyl ester]	< 5 µM	< 5 µM	–
O=C(O)CCN1CCC[C@@H]1COc1ccc(Cc2ccccc2)cc1 [Example 9, 3-[(R)-2-(4-benzyl-phenoxymethyl)-pyrrolidin-1-yl]-propionic acid hydrochloride]	< 5 µM	< 5 µM	–
O=C(O)CCCN1CCC[C@@H]1COc1ccc(Cc2ccccc2)cc1 [Example 10, 4-[(R)-2-(4-benzyl-phenoxymethyl)-pyrrolidin-1-yl]-butylic acid hydrochloride]	< 5 µM	< 5 µM	–
Clc1ccc(Oc2ccc(OC[C@H]3CCCN3)cc2)cc1 [Example 13, (R)-2-[4-(4-Chloro-phenoxy)-phenoxymethyl]-pyrrolidine hydrochloride]	< 5 µM	< 5 µM	–
FC(F)(F)c1ccc(Oc2ccc(OC[C@H]3CCCN3)cc2)cc1 [Example 16, (R)-2-[4-(4-Trifluoromethyl-phenoxy)-phenoxymethyl]-pyrrolidine hydrochloride]	< 5 µM	< 5 µM	–
O=C(O)CCCN1CCC[C@@H]1COc1ccc(Oc2ccc(Cl)cc2)cc1 [Example 20, 4-{(R)-2-[4-(4-Chloro-phenoxy)-phenoxymethyl]-pyrrolidin-1-yl}-butyric acid hydrochloride]	< 5 µM	–	–
O=C(O)CCCN1CCC[C@H]1COc1ccc(Cc2ccc(Cl)cc2)cc1 [Example 21, 4-{(S)-2-[4-(4-Chloro-benzyl)-phenoxymethyl]-pyrrolidin-1-yl}-butyric acid hydrochloride]	< 5 µM	< 5 µM	–
O=C(O)CCCN1CCC[C@H]1COc1ccc(Oc2ccc(Cl)cc2)cc1 [Example 22, 4-{(S)-2-[4-(4-Chloro-phenoxy)-phenoxymethyl]-pyrrolidin-1-yl}-butyric acid hydrochloride]	< 5 µM	–	–
NC(=O)CCCN1CCC[C@H]1COc1ccc(Oc2ccc(Cl)cc2)cc1 [Example 23, 4-{(S)-2-[4-(4-Chloro-phenoxy)-phenoxymethyl]-pyrrolidin-1-yl}-butyramide]	< 5 µM	< 5 µM	–
O=C(CCCN1CCC[C@H]1COc1ccc(Oc2ccc(Cl)cc2)cc1)NO [Example 27, hydrochloride]	< 5 µM	–	–
O=C(O)CCCN1CCC[C@@H]1COc1ccc(Oc2ccc(C(F)(F)F)cc2)cc1 [Example 30, (R)-2-[4-(4-trifluoromethyl-phenoxy)-phenoxymethyl]-pyrrolidine-1-yl}butyric acid sodium salt]	< 5 µM	< 5 µM	–
CS(=O)(=O)NCCCN1CCC[C@H]1COc1ccc(Oc2ccc(Cl)cc2)cc1 [Example 39, N-(3-{(S)-2-[4-(4-Chloro-phenoxy)-phenoxymethyl]-pyrrolidin-1-yl}-propyl)-methanesulfonamide HCl]	< 5 µM	< 5 µM	–
NC(=O)NCCCN1CCC[C@H]1COc1ccc(Oc2ccc(Cl)cc2)cc1 [Example 40, (3-{(S)-2-[4-(4-Chloro-phenoxy)-phenoxymethyl]-pyrrolidin-1-yl}-propyl)-urea]	< 5 µM	–	–
c1ccc(Oc2ccc(NC[C@H]3CCCN3)cc2)cc1 [Example 42, (4-Phenoxy-phenyl)-(R)-1-pyrrolidin-2-ylmethyl-amine]	< 5 µM	< 5 µM	–
Fc1ccc(Oc2ccc(OC[C@H]3CCCN3)cc2)cc1 [Example 49, (R)-2-[4-(4-Fluoro-phenoxy)-phenoxymethyl]-pyrrolidine]	< 5 µM	< 5 µM	–

Molecule	IC50 (human whole blood)	IC50 (human LTA4 hydrolase; [1])	IC50 (human LTA4 hydrolase)
c1ccc(Oc2ccc(OC[C@H]3CCCCN3)cc2)cc1 [Example 50, (R)-2-(4-Phenoxy-phenoxymethyl)-piperidine hydrochloride]	< 5 µM	< 5 µM	–
c1ccc(Cc2ccc(OC[C@H]3CCCCN3)cc2)cc1 [Example 51, (R)-2-(4-Benzyl-phenoxymethyl)-piperidine hydrochloride]	< 5 µM	< 5 µM	–
c1ccc(Oc2ccc(OC[C@@H]3CCCCN3)cc2)cc1 [Example 52, (S)-2-(4-Phenoxy-phenoxymethyl)-piperidine hydrochloride]	< 5 µM	< 5 µM	–
c1ccc(-c2ccc(Oc3ccc(OC[C@@H]4CCCCN4)cc3)cc2)cc1 [Example 53, (S)-2-[4-(Biphenyl-4-yloxy)-phenoxymethyl]-piperidine hydrochloride]	< 5 µM	–	< 5 µM
O=C(O)CCCN1CCC[C@@H]1COc1ccc(Oc2ccc(-c3nccs3)cc2)cc1 [Example 147, 4-{(R)-2-[4-(4-Thiazol-2-yl-phenoxy)-phenoxymethyl]-pyrrolidin-1-yl}-butyric acid]	< 5 µM	–	–
O=C(O)CCCN1CCC[C@H]1COc1ccc(Cc2ccc(-c3nccs3)cc2)cc1 [Example 151, 4-{(S)-2-[4-(4-Thiazol-2-yl-benzyl)-phenoxymethyl]-pyrrolidin-1-yl}-butylic acid hydrochloride salt]	–	< 5 µM	–
c1coc(-c2ccc(Cc3ccc(OC[C@H]4CCCN4)cc3)cc2)n1 [Example 152, 2-{4-[4-((R)-1-Pyrrolidin-2-ylmethoxy)-benzyl]-phenyl}-oxazole]	–	< 5 µM	–
c1ncn(-c2ccc(Oc3ccc(OC[C@H]4CCCN4)cc3)cc2)n1 [Example 153, 1-{4-[4-((R)-1-Pyrrolidin-2-ylmethoxy)-phenoxy]-phenyl}-1H-[1,2,4]triazole hydrochloride salt]	–	< 5 µM	–
c1ccc(Cc2ccc(COC[C@H]3CCCN3)cc2)cc1 [Example 156, hydrochloride salt]	–	–	< 5 µM
O=C(O)CCCN1CCC[C@@H]1COCc1ccc(Cc2ccccc2)cc1 [Example 157, 4-[(R)-2-(4-Benzyl-benzyloxymethyl)pyrrolidin-1-yl]butylic acid hydrochloride salt]	–	< 5 µM	–
O=C(O)CCCN1CCC[C@@H]1COc1ccc(Cc2ccc(-c3ccccc3)s2)cc1 [Example 160, 4-{(R)-2-[4-(5-Phenyl-thiophen-2-ylmethyl)-phenoxymethyl]-pyrrolidin-1-yl}-butyric acid]	–	< 5 µM	–
c1ccc(-c2ccc(Cc3ccc(OC[C@@H]4CCCN4)cc3)s2)cc1 [Example 161, (S)-2-[4-(5-Phenyl-thiophen-2-ylmethyl)-phenoxymethyl]-pyrrolidine hydrochloride salt]	–	< 5 µM	–
O=C(O)CCCN1CCC[C@H]1COc1ccc(Cc2ccc(-c3ccccc3)s2)cc1 [Example 162, 4-{(S)-2-[4-(5-Phenyl-thiophen-2-ylmethyl)-phenoxymethyl]-pyrrolidin-1-yl}-butyric acid]	–	< 5 µM	–
c1ccc(-c2ccc(Cc3ccc(OC[C@H]4CCCN4)cc3)o2)cc1 [Example 163, (R)-2-[4-(5-Phenyl-furan-2-ylmethyl)-phenoxymethyl]-pyrrolidine]	–	< 5 µM	–
O=C(O)CCN1CCC[C@@H]1COc1ccc(Oc2ccccn2)cc1 [Example 168, 3-{2-[4-(Pyridin-2-yloxy)-phenoxymethyl]-pyrrolidin-1-yl}-propionic acid]	–	< 5 µM	–
c1ccc(Cc2ccc(-c3ccc(OC[C@H]4CCCN4)cc3)s2)cc1 [Example 170, (R)-2-[4-(5-Benzyl-thiophen-2-yl)-phenoxymethyl]-pyrrolidine]	–	< 5 µM	–
O=C(O)CCCN1CCC[C@@H]1COc1ccc(-c2ccc(Cc3ccccc3)s2)cc1 [Example 171, 4-{(R)-2-[4-(5-Benzyl-thiophen-2-yl)-phenoxymethyl]-pyrrolidin-1-yl}-butyric acid]	–	< 5 µM	–
c1ccc(Cc2ccc(-c3ccc(OC[C@@H]4CCCN4)cc3)s2)cc1 [Example 172, (S)-2-[4-(5-Benzyl-thiophen-2-yl)-phenoxymethyl]-pyrrolidine]	–	< 5 µM	–
Cc1ccc(Oc2ccc(OC[C@@H]3CCCN3)cc2)cc1 [compound 37]	–	< 5 µM	–
(S)-2-[4-(2-thiophen-benzyl)-phenoxymethyl]-pyrrolidine hydrogen chloride salt [Example 117]	< 5 µM	–	–
